Data taken from patent publication US8618158B2, “Therapeutic agents” (Cancer Research Technology Limited, priority 2008, dated 2013).
Where two headings read alike, the source gives them in different places. Values belong to the compound of their own block, whether it stands above or below them.

What was measured:
[1] = system: SJSA-1 cell line; experiment: Western blot of MDM2, p53 and p21 levels in SJSA-1 cells; assay type: cell-based; conditions: for levels of p53, p21 and MDM2 protein (FIG. 1): MDM2 amplified SJSA-1 cells, 1-20 μM
Description: The medium was then aspirated and the dishes were washed with 3 mL of cold PBS.
The samples were then loaded onto a precast 4-20% gradient polyacrylamide Tris-Glycine gels (15 wells, 1.5 mm thickness, Invitrogen Life Technologies), along with a pre-stained marker protein (SeeBlue, Invitrogen). The Gels were processed in Novex XCell (Invitrogen) at 180V and blotted onto a High Bond C membrane (Amersham Life Science) overnight at 30V.
The membrane was then blocked for one hour at room temperature in TBS-Tween containing 5% non-fat milk (TBST-M) followed by incubation with primary antibodies for MDM2 (MDM2-Ab 1, 1:500, Oncogene), p53 (p53-D07, 1:1000, Novacastra), p21 (p21 Ab1, 1:100, Oncogene) and Actin (Actin AC40, 1:1000, Sigma) in PBST-M for 1 hour.
The membrane was then washed three times in TBST (15 minutes per wash) and then incubated for an additional 1 hour with a anti mouse or a rabbit horseradish peroxidase (HRP) secondary antibody (Dako, 1:1000) in PBST-M followed by a final wash consisting of six washes with TBST at 5 minutes per wash.

[2] = system: wild-type p53 HCT116 cells; experiment: Growth inhibition in p53 wild-type HCT116 cells; assay type: cell-based
[3] = system: p53−/− HCT116 cells; experiment: Growth inhibition in p53−/− HCT116 cells; assay type: cell-based; conditions: comparison of p53 wt and p53−/− HCT116
[4] = target: MDM2-p53 interaction (Homo sapiens (Human), UniProt Q00987); experiment: MDM2-p53 ELISA binding assay
Description: Streptavidin-coated 96-well plates are used to immobilise a biotin-tagged IP3 p53-derived peptide ([…]). This is a peptide analogue derived from the p53 binding site for MDM2 ([…]). […] Aliquots of MDM2 generated by in vitro translation are pre-incubated for 20 minutes at room temperature (i.e. 20-25° C.) with test compounds and controls, before transfer into the IP3-coated 96-well plates.
3-(4-Chloro-phenyl)-3-(4-hydroxy-3,5-dimethoxy-benzyloxy)-2-propyl-2,3-dihydro-isoindolin-1-one (NU8231) is currently included as a standard “lead compound” positive control. […] The AP peptide is included as a positive control for biological evaluation of the isoindolinones in the cell free binding assays.
All compounds are dissolved in DMSO and tested at a range of concentrations in the presence of a fixed final concentration of 5% DMSO.

[5] = system: p53-dependent transcriptional activity; experiment: Luciferase based p53-dependent reporter gene assay; assay type: cell-based
[6] = system: SJSA-1 cell line; experiment: Western blot of PARP and caspase-3 cleavage in SJSA-1 cells; assay type: cell-based; conditions: SJSA-1, after 48 hours of treatment, in comparison to nutlin-3
[7] = Table 1, mean ± SE of n = 3 unless indicated, read-out: ELISA IC50
[8] = Table 5, read-out: MDM2-p53 ELISA IC50
[9] = Table 2, mean ± SE of n = 3 unless indicated, read-out: ELISA IC50

MDM2-p53 interaction, sequence (Q00987 whole entry): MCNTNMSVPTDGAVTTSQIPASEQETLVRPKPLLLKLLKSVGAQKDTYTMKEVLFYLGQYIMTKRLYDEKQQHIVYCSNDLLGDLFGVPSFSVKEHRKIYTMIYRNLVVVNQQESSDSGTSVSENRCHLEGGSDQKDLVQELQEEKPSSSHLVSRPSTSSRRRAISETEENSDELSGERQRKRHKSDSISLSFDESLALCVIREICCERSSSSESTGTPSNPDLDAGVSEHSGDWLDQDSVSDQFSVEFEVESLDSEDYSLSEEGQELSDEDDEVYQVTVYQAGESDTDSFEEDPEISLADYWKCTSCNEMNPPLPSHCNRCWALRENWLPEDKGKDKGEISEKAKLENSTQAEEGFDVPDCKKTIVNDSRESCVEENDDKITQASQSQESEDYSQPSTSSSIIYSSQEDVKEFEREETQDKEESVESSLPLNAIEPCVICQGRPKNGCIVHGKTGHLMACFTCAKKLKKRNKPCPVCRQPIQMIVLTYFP

Compound: COc1ccc(C2=NC(c3ccc(Cl)cc3)C(c3ccc(Cl)cc3)N2C(=O)N2CCNC(=O)C2)c(OC(C)C)c1 (racemic) [Nutlin-3, (±)-4-[4,5-bis-(4-Chlorophenyl)-2-(2-isopropoxy-4-methoxyphenyl)-4,5-dihydroimidazole-1-carbonyl]-piperazin-2-one]
MDM2, p53 and p21 levels by Western blotting (FIG. 12) ([1]; SJSA-1 cells, 1 to 20 μM): strong dose dependent increase in MDM2, p53 and p21 levels
growth inhibition (FIGS. 5 and 6) [2]: growth inhibitory
growth inhibition p53 wt versus p53−/− HCT116 (FIGS. 5 and 6) [3]: greater growth inhibition in the p53 wt HCT116 cell line than the p53−/− HCT116 cells

Compound: O=C1c2ccccc2C(OC2C=C[C@@H](O)C2)(c2ccc(Cl)cc2)N1Cc1ccc(Cl)cc1 (stereo in doubt) [NU8293, 3-(4-Chlorophenyl)-3-(4-hydroxycyclopent-2-enyloxy)-2-(4-chlorobenzyl) isoindolin-1-one]
IC50 [4, 7]: 1500 ± 300 nM
levels of p53, p21 and MDM2 protein (FIG. 1) [1]: induction of increased levels of p53, p21 and MDM2 protein
p53 dependent transcriptional activity (FIG. 3) [5]: activation of p53 dependent transcriptional activity

Compound: O=C1c2ccccc2C(O[C@H]2C=C[C@@H](O)C2)(c2ccc(Cl)cc2)N1Cc1ccc([N+](=O)[O-])cc1 (stereo in doubt) [NU8297, 3-(4-Chlorophenyl)-3-(4-hydroxycyclopent-2-enyloxy)-2-(4-nitrobenzyl) isoindolin-1-one]
levels of p53, p21 and MDM2 protein (FIG. 1) [1]: did not show any evidence of activity
p53 dependent transcriptional activity (FIG. 3) [5]: activation of p53 dependent transcriptional activity

Compound: O=C1c2ccccc2C(O[C@H]2C=C[C@@H](O)C2)(c2ccc(Cl)cc2)N1Cc1ccccc1 (stereo in doubt) [NU8298, 2-Benzyl-3-(4-chlorophenyl)-3-(4-hydroxycyclopent-2-enyloxy) isoindolin-1-one]
IC50 [4, 7]: 2300 ± 300 nM

Compound: O=C1c2ccccc2C(OCC2(CO)CC2)(c2ccc(Cl)cc2)N1Cc1ccc(I)cc1 (stereo not drawn) [NCL-00014529, 3-(4-chlorophenyl)-3-(1-hydroxymethylcyclopropylmethoxy)-2-(4-iodobenzyl)-2,3-dihydroisoindol-1-one]
IC50 [4, 8]: 1500 nM

Compound: O=C1c2ccccc2C(O)(c2ccc(Cl)cc2)N1Cc1cccc2ccccc12 (stereo not drawn) [NCL-00016046, 3-(4-chlorophenyl)-3-hydroxy-2-naphthalen-1-ylmethyl-2,3-dihydroisoindol-1-one]
IC50 [4, 8]: 96000 nM

Compound: O=C1c2ccccc2C(O)(c2ccc(F)cc2)N1Cc1ccc([N+](=O)[O-])cc1 (stereo not drawn) [NCL-00016657, 3-(4-fluorophenyl)-3-hydroxy-2-(4-nitrobenzyl)-2,3-dihydroisoindol-1-one]
IC50 [4, 8]: 9460 nM

Compound: O=C1c2ccccc2C(O[C@H]2CC[C@@H](O)C2)(c2ccc(Cl)cc2)N1Cc1ccc([N+](=O)[O-])cc1 (stereo partly drawn) [NU8296, 3-(4-chlorophenyl)-3-((1S,3R)-3-hydroxycyclopentyloxy)-2-(4-nitrobenzyl)isoindolin-1-one]
p53 dependent transcriptional activity (FIG. 3) [5]: activation of p53 dependent transcriptional activity
PARP and caspase-3 cleavage (FIG. 4) [6]: comparable to those observed with nutlin-3

Compound: O=C1c2ccccc2C(OCCCCO)(c2ccc(Cl)cc2)N1CCc1ccc([N+](=O)[O-])cc1 (stereo not drawn) [NU8362, 3-(4-Chlorophenyl)-3-(4-hydroxybutoxy)-2-[2-(4-nitrophenyl)ethyl]-2,3-dihydroisoindol-1-one]
IC50 [4, 7]: 3200 ± 1000 nM

Compound: O=C1c2ccccc2C(OCCCCO)(c2ccc(Br)cc2)N1Cc1ccc([N+](=O)[O-])cc1 (stereo not drawn) [NU8390, 3-(4-bromophenyl)-3-(4-hydroxybutoxy)-2-(4-nitrobenzyl)isoindolin-1-one]
IC50 ([4]; Table 3, read-out: MDM2 IC50): 570 ± 59 nM

Second part, led by results:

IC50 [4, 7]: 1400 ± 400 nM
Compound: Cc1ccc(CN2C(=O)c3ccccc3C2(O[C@H]2C=C[C@@H](O)C2)c2ccc(Cl)cc2)cc1 (stereo in doubt) [NU8295, 3-(4-Chlorophenyl)-3-(4-hydroxycyclopent-2-enyloxy)-2-(4-methylbenzyl) isoindolin-1-one]
levels of p53, p21 and MDM2 protein (FIG. 1) [1]: induction of increased levels of p53, p21 and MDM2 protein

IC50 [4, 9]: 402 ± 9 nM
Compound: O=C1c2ccccc2C(OC/C=C\CO)(c2ccc(Cl)cc2)N1Cc1ccc([N+](=O)[O-])cc1 (stereo not drawn) [NU8350, 3-(4-Chlorophenyl)-3-(4-hydroxybut-2-enyloxy)-2-(4-nitrobenzyl)-2,3-dihydroisoindol-1-one]

IC50 [4, 9]: 405 ± 10 nM
Compound: O=C1c2ccccc2C(OCC=CCO)(c2ccc(Cl)cc2)N1Cc1ccc([N+](=O)[O-])cc1 (stereo not drawn) [NU8351, 3-(4-Chlorophenyl)-3-(4-hydroxybut-2-enyloxy)-2-(4-nitrobenzyl)-2,3-dihydroisoindol-1-one]

IC50 [4, 9]: 395 ± 75 nM
Compound: CC(C)(CO)COC1(c2ccc(Cl)cc2)c2ccccc2C(=O)N1Cc1ccc([N+](=O)[O-])cc1 (stereo not drawn) [NU8353, 3-(4-Chloro-phenyl)-3-(3-hydroxy-2,2-dimethyl-propoxy)-2-(4-nitro-benzyl)-2,3-dihydro-isoindol-1-one]

IC50 [4, 9]: 582 ± 75 nM
Compound: O=C1c2ccccc2C(OC[C@H]2CC[C@H](CO)CC2)(c2ccc(Cl)cc2)N1Cc1ccc([N+](=O)[O-])cc1 (stereo partly drawn) [NU8358, 3-(4-Chlorophenyl)-3-(4-hydroxymethylcyclohexylmethoxy)-2-(4-nitrobenzyl)-2,3-dihydroisoindol-1-one]

IC50 ([4]; Table 3, read-out: MDM2 IC50): 1400 ± 160 nM
Compound: O=C1c2ccccc2C(OCCCO)(c2ccc(Br)cc2)N1Cc1ccc([N+](=O)[O-])cc1 (stereo not drawn) [NU8392, 3-(4-bromophenyl)-3-(3-hydroxypropoxy)-2-(4-nitrobenzyl)isoindolin-1-one]

IC50 ([4]; Table 4, read-out: MDM2 IC50): 2310 ± 560 nM
Compound: O=C1c2ccccc2C(OCC2(CO)CC2)(c2ccc(Cl)cc2)N1Cc1ccc(Cl)cc1 (stereo not drawn) [NU8416, 2-(4-chlorobenzyl)-3-(4-chlorophenyl)-3-((1-(hydroxymethyl)cyclopropyl)methoxy)isoindolin-1-one]
